Measured values as given in US20260158056A1, “USE OF LOW MOLECULAR WEIGHT HYALURONIC ACID FOR THE TREATMENT OF LUNG MUCOSAL INFLAMMATION” (INSTITUT NATIONAL DE LA SANTÉ ET DE LA RECHERCHE MÉDICALE, priority 2021, published 2026).

Key:
[1] = system: mucin MUC-5B secreted by F508del/F508del CF human airway epithelial cells; test: MUC-5B ELISA, CF airway epithelial cells cultured at the air-liquid interface (ALI); type: cell-based
Protocol: FIG. 8: Measurement by ELISA assay of the mucin MUC-5B secreted by F508del/F508del CF human airway epithelial cells cultured at the air-liquid interface (ALI). Airway epithelial cells were seeded in bi-compartmental chambers and cultured in liquid-liquid condition until confluence was reached. At confluence, culture medium from the upper chamber was removed to create an air-liquid interface (ALI) that will favor epithelial cell differentiation. From the ALI creation, the different treatments (15-45 kDa sodium-hyaluronic acid (HA-Na 15-45 kDa) (ARD—Pomacle—France—as prepared according to WO2004050187), 15-30 kDa sodium-hyaluronic acid (HA-Na 15-30 kDa) (Sigma Aldrich), or 30-50 kDa sodium-hyaluronic acid (HA-Na 30-50 kDa) (Sigma Aldrich)) were added at 1 mg/mL to the culture medium in the basal chamber. The culture medium was renewed three times a week. At ALI day 15 and ALI Day 25, the culture in the upper chamber was rinsed with PBS then, a small volume of fresh medium without any treatment was placed at the contact of the apical part of the epithelium. After a 4 h-period, this apical culture medium was collected and the MUC-5B content was determined by ELISA assay. n=3 different F508del/F508del CF patients. p<0.001 (***); p<0.01 (**); p<0.05 (*). ns: non-significant.
FIG. 9: Measurement by ELISA assay of the mucin MUC-5B secreted by F508del/F508del CF human airway epithelial cells cultured at the air-liquid interface (ALI). Airway epithelial cells were seeded in bi-compartmental chambers and cultured in liquid-liquid condition until confluence was reached. At confluence, culture medium from the upper chamber was removed to create an air-liquid interface (ALI) that will favor epithelial cell differentiation. From the ALI creation, the different treatments (15-45 kDa sodium-hyaluronic acid (HA-Na 15-45 kDa) (ARD—Pomacle—France—as prepared according to WO2004050187), 15-45 kDa calcium-hyaluronic acid (HA-Ca 15-45 kDa; ARD), or 15-45 kDa potassium-hyaluronic acid (HA-K 15-45 kDa; ARD) were added at 1 mg/mL to the culture medium in the basal chamber. The culture medium was renewed three times a week. At ALI day 15 and ALI Day 25, the culture in the upper chamber was rinsed with PBS then, a small volume of fresh medium without any treatment was placed at the contact of the apical part of the epithelium. After a 4 h-period, this apical culture medium was collected and the MUC-5B content was determined by ELISA assay. n=3 different F508del/F508del CF patients. p<0.001 (***); p<0.01 (**); p<0.05 (*). ns: non-significant.
FIG. 10: Measurement by ELISA assay of the mucin MUC-5B secreted by F508del/F508del CF human airway epithelial cells cultured at the air-liquid interface (ALI). Airway epithelial cells were seeded in bi-compartmental chambers and cultured in liquid-liquid condition until confluence was reached. At confluence, culture medium from the upper chamber was removed to create an air-liquid interface (ALI) that will favor epithelial cell differentiation. From the ALI creation, 15-45 kDa sodium-hyaluronic acid (HA-Na 15-45 kDa) (ARD—Pomacle—France—as prepared according to WO2004050187) was added at 2 mg/mL, 1 mg/mL or 0.5 mg/mL to the culture medium in the basal chamber. The culture medium was renewed three times a week. At ALI day 15 and ALI Day 25, the culture in the upper chamber was rinsed with PBS then, a small volume of fresh medium without any treatment was placed at the contact of the apical part of the epithelium. After a 4 h-period, this apical culture medium was collected and the MUC-5B content was determined by ELISA assay. n=3 different F508del/F508del CF patients. p<0.001 (***); p<0.01 (**); p<0.05 (*). ns: non-significant.

[2] = system: IL-8 secreted by non-CF human airway epithelial cells; test: IL-8 ELISA, non-CF airway epithelial cells cultured at the air-liquid interface (ALI); type: cell-based; settings: FIG. 11, 14; 1 mg/mL from ALI creation, ALI day 15, vs control condition; n=1 non-CF patient
Protocol: FIG. 11: Measurement by ELISA assay of the pro-inflammatory chemokine IL-8 secreted by non-CF human airway epithelial cells cultured at the air-liquid interface (ALI). Airway epithelial cells were seeded in bi-compartmental chambers and cultured in liquid-liquid condition until confluence was reached. At confluence, culture medium from the upper chamber was removed to create an air-liquid interface (ALI) that will favor epithelial cell differentiation. From the ALI creation, the different treatments (15-45 kDa sodium-hyaluronic acid (HA-Na 15-45 kDa) (ARD—Pomacle—France—as prepared according to WO2004050187), 15-30 kDa sodium-hyaluronic acid (HA-Na 15-30 kDa) (Sigma Aldrich), or 30-50 kDa sodium-hyaluronic acid (HA-Na 30-50 kDa) (Sigma Aldrich)) were added at 1 mg/mL to the culture medium in the basal chamber. The culture medium was renewed three times a week. At ALI day 15, the culture medium was replaced by fresh medium without any treatment. After a 4 h-period, this culture medium was collected and the IL-8 content was determined by ELISA assay. n=1 non-CF patient. p<0.001 (***); p<0.01 (**); p<0.05 (*). ns: non-significant.
FIG. 14: Measurement by ELISA assay of the pro-inflammatory chemokine IL-8 secreted by non-CF human airway epithelial cells cultured at the air-liquid interface (ALI). Airway epithelial cells were seeded in bi-compartmental chambers and cultured in liquid-liquid condition until confluence was reached. At confluence, culture medium from the upper chamber was removed to create an air-liquid interface (ALI) that will favor epithelial cell differentiation. From the ALI creation, the different treatments (15-45 kDa sodium-hyaluronic acid (HA-Na 15-45 kDa) (ARD—Pomacle—France—as prepared according to WO2004050187), 15-45 kDa calcium-hyaluronic acid (HA-Ca 15-45 kDa; ARD) or 15-45 kDa potassium-hyaluronic acid (HA-K 15-45 kDa; ARD) were added at 1 mg/mL to the culture medium in the basal chamber. The culture medium was renewed three times a week. At ALI day 15, the culture medium was replaced by fresh medium without any treatment. After a for 4 h-period, this culture medium was collected and the IL-8 content was determined by ELISA assay. n=1 non-CF patient. p<0.001 (***); p<0.01 (**); p<0.05 (*). ns: non-significant.

[3] = 1 mg/mL, ALI day 15, vs control condition, n=3 CF patients
[4] = 1 mg/mL, ALI day 25, vs control condition, n=3 CF patients

| Substance | decrease in MUC-5B secretion [1, 3] [%] | decrease in MUC-5B secretion [1, 4] [%] | decrease in IL-8 secretion [2] [%] | decrease in MUC-5B secretion ([1]; FIG. 10, 0.5 mg/mL, ALI day 15 and ALI day 25) | decrease in MUC-5B secretion ([1]; FIG. 10, 2 mg/mL, ALI day 15) [%] | decrease in MUC-5B secretion ([1]; FIG. 10, 2 mg/mL, ALI day 25) [%] |
| --- | --- | --- | --- | --- | --- | --- |
| 15-30 kDa sodium-hyaluronic acid [HA-Na 15-30 kDa] | 14.1 | 17.3 | 60.6 |  |  |  |
| 15-45 kDa calcium-hyaluronic acid [HA-Ca 15-45 kDa] | 85.5 | 58.8 | 70.5 |  |  |  |
| 15-45 kDa potassium-hyaluronic acid [HA-K 15-45 kDa] | 34.7 |  | 57.9 |  |  |  |
| 15-45 kDa sodium-hyaluronic acid [HA-Na 15-45 kDa] | 37.3 | 33.2 | 69.7 | does not have any effect | 97.9 | 81.2 |
| 30-50 kDa sodium-hyaluronic acid [HA-Na 30-50 kDa] | 68.7 | 67.1 | 66.6 |  |  |  |
